Experimental data from patent US20100217003A1, “1,2,3,4-TETRAHYDROISOQUINOLINE DERIVATIVES HAVING EFFECTS OF PREVENTING AND TREATING DEGENERATIVE AND INFLAMMATORY DISEASES” (priority 2006, published 2010).

System: activated microglial cell
Assay: BH4 production in an activated microglial cell
Type: cell-based
Conditions: activated microglial cell (FIG. 12)

COc1cc2c(cc1O)CNCC2 [HMTIQ, 7-hydroxy-6-methoxy-1,2,3,4-tetrahydroisoquinoline]
BH4 production: inhibitory effect
